Source: patent publication US20230270721A1, “INHIBITION OF BAX-MEDIATED CELL DEATH BY ELTROMBOPAG” (Albert Einstein College of Medicine, priority 2020, published 2023)

Molecular target: T1, BAX K21E (Homo sapiens, UniProt Q07812, K21E)
T1 construct: Human full-length (1-192) wild-type BAX (Q07812); made in house; host or cells: E. coli BL21 (DE3) CodonPlus (DE3)-RIPL
Assay: Liposomal permeabilization assay, trigger site mutant K21E
Type: biochemical
Conditions: 250 nM BAX and 5 nM tBID
Method: Lipids (Avanti Polar Lipids) at the following ratio, phosphatidylcholine 48%, phosphatidylinositol 10%, dioleoyl phosphatidylserine 10%, phosphatidylethanolamine, 28%, and tetraoleoyl cardiolipin 4%, were mixed in a total of 1 mg, dried and resuspended in 10 mM HEPES, pH 7, 200 mM KCI, and 5 mM MgCl2 with 12.5 mM 8-aminonaphthalene-1,3,6-trisulfonic acid (ANTS) dye and 45 mM p-xylene-bis-pyridinium bromide (DPX) quencher (Molecular Probes) using a water bath sonicator. Liposomes were formed by extrusion of the suspension using Avanti Mini-Extruder (Cat # 610000) with polycarbonate membranes of 0.1 µm pore size (Avanti Polar Lipids). […] ANTS/DPX release was quantified based on the increase in fluorescence intensity that occurs when the ANTS fluorophore is separated from the DPX quencher upon release from the liposomes into solution. Fluorescence (λex = 355 nm and λem = 520 nm) was measured at 1 minute intervals at room temperature (22-25° C.) indicated using a Tecan Infinite M1000 plate reader. In the case of heat activation, reactions were set up as described in the absence of tBID or BIM, and experiments were recorded at 42° C. The percentage release of ANTS/DPX at any given time point was calculated as percentage release=((F-F0)/(F100-F0))(100), where F0 and F100 are baseline and maximal fluorescence, respectively. […]

T1 sequence (Q07812 whole entry K21E): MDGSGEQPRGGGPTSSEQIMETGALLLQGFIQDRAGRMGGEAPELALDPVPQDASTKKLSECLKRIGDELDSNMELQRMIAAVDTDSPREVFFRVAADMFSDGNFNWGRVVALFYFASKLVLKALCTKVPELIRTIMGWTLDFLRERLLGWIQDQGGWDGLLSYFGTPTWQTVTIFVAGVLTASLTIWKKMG

## CC1=NN(c2ccc(C)c(C)c2)C(=O)/C1=N\Nc1cccc(-c2cccc(C(=O)O)c2)c1O [EO, eltrombopag]
  inhibition of liposomal release versus BAX WT: not reduced inhibition
